Data on 2 compounds can be found in patent US7741338B2, “Macrolides” (Novartis AG, priority 1998, dated 2010).

Structures are written as SMILES.

Data set [1] in a line: storage stability, sum of by-products and degradation products after 1 week storage. Type of data set: physicochemical. The note with it: 50° C. in open flask. From the text:
The sum of by-products and degradation products in % after 1 week storage are as follows: […]

The test system of the next data set is localized GvHD. Description: localized GvHD, inhibition of lymph node swelling. The note with it: dosage of 3 mg. Type of data set: in vivo. As for the experimental part:
(§1) In the localized GvHD, maximal inhibition (70-80%) of lymph node swelling is achieved with a dosage of 3 mg with 40-O-(2-hydroxy)ethyl-rapamycin in crystalline form.

Data set [2] can be described thus: in vitro and in vivo immunosuppressive activity. The following applies: crystalline form compared with amorphous form. As for the experimental part: as §1

Regarding `CO[C@H]1C[C@@H]2CC[C@@H](C)[C@@](O)(O2)C(=O)C(=O)N2CCCC[C@H]2C(=O)O[C@H]([C@H](C)C[C@@H]2CC[C@@H](OCCO)[C@H](OC)C2)CC(=O)[C@H](C)/C=C(\C)[C@@H](O)[C@@H](OC)C(=O)[C@H](C)C[C@H](C)/C=C/C=C/C=C/1C` [Without BHT, 40-O-(2-hydroxy)ethyl-rapamycin], the “sum of by-products and degradation products” value in data set [1] is reported as greater than 10%.

For `CO[C@H]1C[C@@H]2CC[C@@H](C)[C@@](O)(O2)C(=O)C(=O)N2CCCC[C@H]2C(=O)O[C@H]([C@H](C)C[C@@H]2CC[C@@H](OCCO)[C@H](OC)C2)CC(=O)[C@H](C)/C=C(\C)[C@@H](O)[C@@H](OC)C(=O)[C@H](C)C[C@H](C)/C=C/C=C/C=C/1C` [40-O-(2-hydroxy)ethyl-rapamycin], the “maximal inhibition of lymph node swelling” value in the data set on localized GvHD is 70-80%. Moreover, the “in vitro and in vivo immunosuppressive activity” value in data set [2] was “comparable to that of the amorphous form”.
